{
  "source": "patent US20230310390A1",
  "about": "“INHIBITORS OF SHORT-CHAIN DEHYDROGENASE ACTIVITY FOR TREATING NEURODEGENERATION” (CASE WESTERN RESERVE UNIVERSITY, priority 2020, published 2023)",
  "type_in_all_cases": "in vivo",
  "key": {"15-PGDH [1]": {"target": "T1, 15-PGDH (Mus musculus, UniProt Q8VCC1)", "T1 construct": "brain tissue was dissected 3 weeks later for biochemical determination of 15-PGDH enzymatic activity; from tissue; host or cells: mouse brain (forebrain after TBI; whole brain of 5xFAD and WT littermates)", "T1 sequence (Q8VCC1 1-269)": "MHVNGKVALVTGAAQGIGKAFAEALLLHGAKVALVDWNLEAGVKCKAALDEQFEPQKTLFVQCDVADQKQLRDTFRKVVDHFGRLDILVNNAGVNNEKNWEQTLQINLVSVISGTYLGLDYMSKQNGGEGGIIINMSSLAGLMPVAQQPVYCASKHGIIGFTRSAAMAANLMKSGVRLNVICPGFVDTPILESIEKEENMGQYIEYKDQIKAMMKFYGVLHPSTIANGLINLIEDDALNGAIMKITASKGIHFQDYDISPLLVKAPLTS", "experiment": "15-PGDH activity in whole brain of 5×FAD and WT mice", "conditions": "5 mg/kg/day twice daily from 2 to 6 months of age", "experimental": "(§1) (A) 8 week old 15-PGDH wild-type (Hpgd^+/+) and 15-PGDH knockout (Hpgd^−/−) mice were subjected to TBI, and brain tissue was dissected 2 weeks later for western blot. […] Individual human data points are shown on the graph. Data was analyzed with Student's t test. * p<0.05. All data is mean±SEM. (C) Hpgd^+/+ mice were subjected to TBI at 8 weeks of age and then brain tissue was dissected 3 weeks later for biochemical determination of 15-PGDH enzymatic activity. […] Individual mouse data points are shown on the graph. Data was analyzed with Student's t test. ** p<0.01, **** p<0.0001. All data is mean±SEM. (D) 5×FAD mice and wild type littermates (WT) were administered either 5 mg/kg/day (+)-SW033291 twice daily (or vehicle) from 2 to 6 months of age, and then brains were dissected for biochemical assessment of 15-PGDH activity. […] Individual mouse data points are shown on the graph. Data was analyzed using two-way repeated measures ANOVA; * p<0.05, ** p<0.01, *** p<0.001. All data is mean±SEM."}, "[2]": {"system": "C57/B6 mice exposed to TBI", "experiment": "Morris water maze after TBI", "conditions": "for memory / cognitive impairment after TBI (MWM probe): 5 mg/kg twice daily started 24 hours after injury, tested 2 weeks after injury", "experimental": "(A) Experimental Timeline: 8 week old C57/B6 mice were exposed to sham-injury or TBI. Twice daily treatment with 5 mg/kg (+)-SW033291 or vehicle was started 24 hours after injury and continued throughout the duration of the experiment. Animals were tested for cognitive performance in the Morris water maze (MWM) 2 weeks after injury. (B) Animals were trained to find the hidden platform in the MWM for 4 consecutive days (4 trials/day), with performance measured as latency to find the hidden platform. […] (C, D) To probe for spatial memory of the learned location of the hidden platform, one day after the final learning day the animals were tested in the same MWM except the platform was removed. Memory was measured as latency to first cross the area where the platform was located and the number of times the animal crossed that area. […] Individual mouse data points are shown on the graph. Data was analyzed using two-way repeated measures ANOVA; * p<0.05, ** p<0.01, *** p<0.001. All data is mean±SEM"}, "15-PGDH [3]": {"target": "T1, 15-PGDH", "experiment": "15-PGDH enzymatic activity in forebrain after TBI", "conditions": "Hpgd+/+ mice, 3 weeks after TBI, 5 mg/kg started 24 hours after injury", "experimental": "as §1"}, "5×FAD mice [4]": {"system": "5×FAD mice", "experiment": "Morris water maze in 5×FAD mice", "conditions": "5 mg/kg/day twice daily from 2 to 6 months", "experimental": "(A) Experimental Timeline: Two month old 5×FAD and wild type (WT) littermates were treated with 5 mg/kg/day twice daily (+)-SW033291 (or vehicle) every day from 2 to 6 months. Cognitive performance was tested using Morris water maze (MWM) as shown in the timeline. (B) Animals were trained to find the hidden platform in the MWM maze for 3 consecutive days (4 trials/day), and latency to find the hidden platform was measured. […] (C) To probe for spatial memory of the hidden platform, one day after the last learning day the animals were tested in the same MWM, except the platform was removed. Memory was measured as latency to first cross the area where the platform was located and the number of times an animal crossed that area. […] Individual mouse data points are shown on the graph. Data was analyzed using two-way repeated measures ANOVA; * p<0.05, ** p<0.01, *** p<0.001. All data is mean±SEM."}, "5×FAD mice [5]": {"system": "5×FAD mice", "experiment": "Amyloid plaque accumulation (Congo Red staining)", "conditions": "5 mg/kg/day twice daily from 2 to 6 months", "experimental": "(§2) Two month old 5×FAD and wild type (WT) littermates were treated with 5 mg/kg/day twice daily (+)-SW033291 (or vehicle) every day from 2 to 6 months. At 5 months of age, mice were injected with a single dose of 150 mg/kg bromodeoxyuridine (BrdU) to label replicating cells. At the age of 6 months (28 days after BrdU) mice were transcardially perfused and brains were dissected for examination of fixed tissue. […] Individual mouse data points are shown on the graph. Data was analyzed using two-way repeated measures ANOVA; * p<0.05, ** p<0.01, ***p<0.001, ****p<0.0001. All data is mean±SEM."}, "5×FAD mice [6]": {"system": "5×FAD mice", "experiment": "Blood-brain barrier integrity by transmission electron microscopy", "experimental": "BBB integrity was analyzed using transmission electron microscopy (TEM) in 6 month old 5×FAD mice. […] Mice were treated with 5 mg/kg/day (+)-SW033291 (or vehicle) every day from 2 to 6 months of age, and then sacrificed for TEM analysis. Individual mouse data points are shown on the graph. Data was analyzed using one-way ANOVA; * p<0.05, ** p<0.01, *** p<0.001. All data is mean±SEM."}, "[7]": {"system": "5×FAD and wild type (WT) mice", "experiment": "BrdU staining, survival of newborn hippocampal neurons", "conditions": "5 mg/kg/day twice daily from 2 to 6 months; for survival of newborn hippocampal neurons (BrdU): 28 days after BrdU", "experimental": "as §2"}, "[8]": {"conditions": "MWM probe test, TBI mice, 5 mg/kg twice daily"}, "[9]": {"conditions": "6 month old 5×FAD mice, 5 mg/kg/day from 2 to 6 months of age, TEM"}},
  "note": "“Also recorded” adds a separate entry of the source.",
  "data": [
    {"smiles": "CCCC[S+]([O-])c1sc2nc(-c3cccs3)cc(-c3ccccc3)c2c1N", "note": "(single isomer, unassigned; (+)) [(+)-SW033291]", "values": [
      {"measurement": "15-PGDH activity in the whole brain", "setting": "15-PGDH [1]; 5×FAD mice, compared to 5×FAD vehicle, 5 mg/kg/day", "result": "significantly lowered 15-PGDH activity in the whole brain; also recorded: returned to normal"},
      {"measurement": "15-PGDH activity in the whole brain", "setting": "15-PGDH [1]; WT mice, compared to WT vehicle", "result": "significantly lowered 15-PGDH activity in the whole brain"},
      {"measurement": "average latency to crossing the platform area", "setting": "[2]; [8]", "result": "significantly increased in the vehicle-treated TBI-injured group compared to all other groups"},
      {"measurement": "number of platform crosses", "setting": "[2]; [8]", "result": "significantly decreased in the vehicle-treated TBI-injured group compared to all other groups"},
      {"measurement": "average (escape) latency to find the hidden platform (learning)", "setting": "[2]; TBI and sham-injured mice, 4-day learning period, 5 mg/kg twice daily", "result": "not different between groups"},
      {"measurement": "memory / cognitive impairment after TBI (MWM probe)", "setting": "[2]; TBI mice, 5 mg/kg", "result": "TBI-injured animals treated with vehicle showed memory deficits compared to the (+)-SW033291-treated TBI group"},
      {"measurement": "memory / cognitive impairment after TBI (MWM probe)", "setting": "[2]; TBI mice, listed as (+)-SW033921, 5 mg/kg", "result": "protects wild type mice from cognitive impairment after TBI"},
      {"measurement": "15-PGDH enzymatic activity in the forebrain", "setting": "15-PGDH [3]", "result": "restored to normal; also recorded: returned to normal"},
      {"measurement": "average (escape) latency to find the hidden platform (learning)", "setting": "5×FAD mice [4]; 5×FAD and WT mice, 3 consecutive days", "result": "not different between groups"},
      {"measurement": "memory deficit / cognitive function (MWM probe)", "setting": "5×FAD mice [4]; 5×FAD mice, 5 mg/kg/day", "result": "alleviated this deficit"},
      {"measurement": "memory deficit / cognitive function (MWM probe)", "setting": "5×FAD mice [4]; 5×FAD mice, listed as (+)-SW033921, 5 mg/kg/day", "result": "protects cognitive function in 5×FAD mice"},
      {"measurement": "number of platform crosses", "setting": "5×FAD mice [4]; MWM probe test, 5×FAD mice", "result": "significantly decreased in the vehicle-treated 5×FAD group compared to the other groups"},
      {"measurement": "amyloid plaque accumulation (Congo Red staining)", "setting": "5×FAD mice [5]", "result": "does not alter amyloid plaque accumulation; also recorded: does not affect accumulation of amyloid plaque"},
      {"measurement": "blood-brain barrier (BBB) protection", "setting": "5×FAD mice [6]; 5×FAD mice", "result": "protects the blood-brain barrier (BBB) in 5×FAD mice"},
      {"measurement": "disruption of astrocyte end feet that envelope the BBB", "setting": "5×FAD mice [6]; [9]", "result": "prevented this disruption"},
      {"measurement": "enlargement of the perivascular space", "setting": "5×FAD mice [6]; [9]", "result": "prevented this disruption"},
      {"measurement": "survival of young hippocampal neurons relative to WT-vehicle mice", "setting": "[7]; 5×FAD mice", "result": "comparable extent as WT-vehicle mice"},
      {"measurement": "survival of newborn hippocampal neurons (BrdU)", "setting": "[7]; 5×FAD mice, 5 mg/kg/day", "result": "augments the survival of newborn hippocampal neurons"},
      {"measurement": "survival of newborn hippocampal neurons (BrdU)", "setting": "[7]; WT mice", "result": "augments the survival of newborn hippocampal neurons"}
    ]}
  ]
}
